Experimental data taken from US20230068414A1, “Herbicide combinations comprising glufosinate and trifludimoxazin” (BASF SE, priority 2020, published 2023).

Key:
[1] = system: Amaranthus palmeri (AMAPA); test: Greenhouse postemergence weed control, percent injury vs untreated control; format: in vivo
Description: (§1) For post-emergence treatments, glufosinate and trifludimoxazin, which had been suspended in water, were applied using spray nozzles providing fine to coarse droplets.
(§2) The herbicide compounds applied in the examples were used as experimental or commercially available solo or premix formulations which have been diluted with tap water to a suitable concentration. Glufosinate was used as a commercial SL formulation containing 280 g ai/l of glufosinate (Liberty 280 SL, BASF). While the PPO herbicide Vulcarus containing 500 g ai/l trifludimoxazin was used (Vulcarus 500 SC, BASF) formulation.
(§3) The evaluation for plant injury or damage caused by the chemical compositions was carried out using a scale from 0-100% when compared with the untreated control plants. Here, 0 means no damage and 100 means complete destruction of the plants.
(§4) 22., E=X+Y−(X*Y/100), where
(§5) X=effect in percent using herbicide A at an application rate of a;
(§6) Y=effect in percent using herbicide B at an application rate of b;
(§7) E=expected effect (in %) of A+B at application rates a+b.
(§8) The value E corresponds to the effect (plant damage or injury) which is to be expected if the activity of the individual compounds is just additive. If the observed effect is higher than the value E calculated according to Colby, a synergistic effect is present.
(§9) Weed Control of Glufosinate Plus Trifludimoxazin Mixtures (Greenhouse) Seedlings of velvetleaf (Abutilon theophrasti; ABUTH) and Palmer amaranth (Amaranthus palmeri; AMAPA were treated with postemergence applications of either glufosinate at 246 g ai/ha, trifludimoxazin at 6.25 g ai/ha, or the combination of glufosinate (246 g ai/ha) and trifludimoxazin (6.25 g ai/ha), respectively, when they were 5-10 cm in height. All glufosinate treatments contained 1% (w/v) ammonium sulfate and solo trifludimoxazin treatments contained 1% (w/v) ammonium sulfate plus 1% (v/v) MSO surfactant. Plants were placed in a completely randomized design with four replications per treatment. Percent injury data was collected 21 days after treatment (DAT).

[2] = system: Abutilon theophrasti (ABUTH); test: as above; format: in vivo
Description: as §1, §2, §3, §4, §5, §6, §7, §8, §9

CP(=O)(O)CCC(N)C(=O)O (racemic) [Glufosinate, (2RS)-2-amino-4-[hydroxy(methyl)phosphinoyl]butyric acid]
inhibition at 246 g/ha ([1]; Amaranthus palmeri, post-emergence, 504 h, read-out: Solo Glufosinate (246 g ai/ha) % activity): 48%
inhibition at 246 g/ha ([2]; Abutilon theophrasti, post-emergence, 504 h, read-out: Solo Glufosinate (246 g ai/ha) % activity): 23%

C#CCN1C(=O)C(F)(F)Oc2cc(F)c(-n3c(=O)n(C)c(=S)n(C)c3=O)cc21 [Trifludimoxazin]
Solo Trifludimoxazin (6.25 g ai/ha) % activity ([1]; AMAPA seedlings 5-10 cm, postemergence, 6.25 g ai/ha, 1% ammonium sulfate plus 1% MSO, 21 DAT): 63%
Solo Trifludimoxazin (6.25 g ai/ha) % activity ([2]; ABUTH seedlings 5-10 cm, postemergence, 6.25 g ai/ha, 1% ammonium sulfate plus 1% MSO, 21 DAT): 70%
